The text below walks through data of article PMC7318034, “Safety, Pharmacokinetics, and Drug-Drug Interaction Potential of Intravenous Durlobactam, a β-Lactamase Inhibitor, in Healthy Subjects” (Antimicrobial Agents and Chemotherapy, 2020).

Data set [1] in a line: Part C single-dose drug-drug interaction plasma PK in healthy subjects. The following applies: for half-life / AUC(0-t) / clearance / Cmax / Vd: human, in vivo; for clearance: CL; for Vd: Vss. As to the method: (§1) The blank control matrix was made up of human plasma (BioreclamationIVT) diluted 1:1 with SigmaFast (reconstituted protease inhibitor cocktail tablet [product S8820; Sigma-Aldrich, St. Louis, MO] in 10 ml of water) for preparation of calibration standards and QC samples. […] A 100-μl aliquot of the supernatant was transferred to 96-well plates. Samples were diluted further with 400 μl of water, and 5 μl of sample was injected into the LC-MS/MS system for analysis. […] The LLOQ for all analytes was 5 ng/ml.
(§2) AUC was calculated using the log-linear trapezoidal rule.
(§3) Pharmacokinetic parameters were summarized at each assessment time point using the mean ± standard deviation (SD), the percent coefficient of variation (CV), median, minimum, and maximum. Single-ascending-dose study data were assessed for dose proportionality using Cmax and AUC, and accumulation ratios was determined using repeat-dose cohorts. […] Noncompartmental analysis of PK parameters was performed using Phoenix WinNonlin (v6.4) software to determine PK parameters.

Data set [2] can be described thus: Part D multiple-dose coadministration of DUR, SUL and IMI-CIL, plasma PK in healthy subjects. The following applies: for AUC / Cmax / Tmax: human, in vivo; for AUC: AUC0–tau. How it is done:
as §1, §2, §3

Data set [3] is described as follows: clinical. The following applies: human, 0.5 g.
Data set [4] in a line: Urine PK (urinary excretion, renal clearance) in healthy subjects. The following applies: for CL renal: human, CLr.
The conditions of data set [5]: cited from earlier work.
[6] abbreviates: 1 g, part C cohort 13, SUL 1 g alone, day 1.
The mark [7] stands for this setting: AUC0–24, part C cohort 14, DUR 1 g + IMI-CIL 0.5 g + SUL 1 g, day 8.
The mark [8] stands for this setting: part C cohort 13, DUR 1 g + SUL 1 g coadministered, day 5.
Setting [9] is: part C cohort 14, DUR 1 g + IMI-CIL 0.5 g + SUL 1 g, day 8.
Where [10] appears, read: part C cohort 14, SUL 1 g + IMI-CIL 0.5 g, day 8.
Where [11] appears, read: DUR 1 g + SUL 1 g + IMI-CIL 0.5 g q6h, day 1.
The mark [12] stands for this setting: DUR 1 g + SUL 1 g + IMI-CIL 0.5 g q6h, day 11.
The mark [13] stands for this setting: DUR 1 g + SUL 1 g + IMI-CIL 0.5 g q6h, day 1, median, n=10.
Where [14] appears, read: DUR 1 g + SUL 1 g + IMI-CIL 0.5 g q6h, day 11, median.
The mark [15] stands for this setting: part C cohort 14, Day 8, placebo subjects (no DUR), n=2.
Where [16] appears, read: part D cohort 15, Day 1, DUR + SUL + IMI-CIL q6h, mean, n=10.
Setting [17] is: part D cohort 15, Day 11, DUR + SUL + IMI-CIL q6h, mean, n=10.
Where [18] appears, read: part C cohort 14, IMI-CIL 0.5 g alone, day 3.
Where [19] appears, read: part C cohort 14, DUR 1 g + IMI-CIL 0.5 g, day 5.

Bounds are passed on as bounds.

With `CC1(C)[C@H](C(=O)O)N2C(=O)C[C@H]2S1(=O)=O` [SUL, Sulbactam], the half-life in data set [1] (1 g) is 78 ± 6 min. For the same compound, the area under the curve AUC(0-t) amounted to 68500 ± 4700 ng·h/mL in data set [1] (1 g, AUC0–24, part C cohort 13, SUL 1 g alone, day 1); 73000 ± 6200 ng·h/mL in data set [1] (AUC0–24, part C cohort 13, DUR 1 g + SUL 1 g coadministered, day 5); 80600 ± 21200 ng·h/mL in data set [1] (setting [7]); 81700 ± 5200 ng·h/mL in data set [1] (AUC0–24, part C cohort 14, SUL 1 g + IMI-CIL 0.5 g, day 8). Besides, the clearance is 243 mL/min in data set [1] (setting [6]), 230 mL/min in data set [1] (setting [8]), 217 mL/min in data set [1] (setting [9]) and 205 mL/min in data set [1] (setting [10]). Also, the Cmax in data set [1] (setting [6]) is 20700 ± 700 ng/mL; in data set [1] (setting [8]), 22000 ± 2700 ng/mL; in data set [1] (setting [10]) it was 24000 ± 2000 ng/mL; in data set [2] (setting [11]), 23900 ± 1300 ng/mL; in data set [2] (setting [12]), 22400 ± 6100 ng/mL. In addition, the Vd in data set [1] (setting [6]) was 18 ± 1.6 L; in data set [1] (setting [8]), 18.1 ± 1.7 L; in data set [1] (setting [9]) it was 15.2 ± 2.7 L; in data set [1] (setting [10]), 15.4 ± 1.5 L. The t1/2 in data set [1] (setting [8]) and in data set [1] (setting [10]) was 1.3 ± 0.1 h throughout. Further, the exposure (AUC) stood at 76700 ± 5800 ng·h/mL in data set [2] (setting [11]) and 67900 ± 7600 ng·h/mL in data set [2] (setting [12]). Further, the Tmax in data set [2] (setting [13]) is 2.7 h; in data set [2] (setting [14]) it was 2.6 h.
The compound `C[C@@H](O)[C@H]1C(=O)N2C(C(=O)O)=C(SCCN=CN)C[C@H]12` [IMI, imipenem, reference compound] displayed an AUC(0-t) in data set [1] (AUC0–24) of 43700 ± 9200 ng·h/mL. This compound had a clearance in data set [1] of 197 mL/min. The Cmax in data set [1] was determined as 34400 ± 5300 ng/mL. The half-life in data set [1] (t1/2) was 72 ± 6 min. Also, the CL renal in data set [3] (urine, intravenous) is 102 mL/min; in data set [4] (urine, intravenous, part C cohort 14, Day 8, placebo subjects (no DUR), n=2), 70.4 mL/min; in data set [4] (urine, intravenous, part D cohort 15, Day 11, DUR + SUL + IMI-CIL q6h, mean), 136 mL/min. For the same compound, the Ae in data set [4] (setting [15]) is 183.832 (56.842) mg; in data set [4] (setting [16]) it was 1407.051 mg; in data set [4] (setting [17]) it was 271.71 mg. Moreover, the figures for the Fe in data set [4] (setting [15]), in data set [4] (setting [16]) and in data set [4] (setting [17]) were 36.766 (11.368) %, 35.1762% and 54.343%, respectively.
For the compound colistin, in data set [5] (patients treated with colistin), the “nephrotoxicity, patients affected” value is listed as at least 40%. In data set [5] (patients with hospital-acquired or ventilator-associated pneumonia treated with colistin-based antibiotic regimens), the mortality rate result is “approximately 40%”.
As to `CC1(C)C[C@@H]1C(=O)N/C(=C\CCCCSC[C@H](N)C(=O)O)C(=O)O` [CIL, cilastatin], the half-life in data set [1] was 72 ± 12 min. The exposure AUC(0-t) was 46900 ± 6600 ng·h/mL in data set [1] (setting [7]); 47100 ± 7200 ng·h/mL in data set [1] (AUC0–24, part C cohort 14, DUR 1 g + IMI-CIL 0.5 g, day 5); 49600 ± 9800 ng·h/mL in data set [1] (AUC0–24, part C cohort 14, IMI-CIL 0.5 g alone, day 3). Also, the clearance in data set [1] (setting [18]) is 173 mL/min. Also, the highest concentration (Cmax) in data set [1] (setting [9]) amounted to 40700 ± 4900 ng/mL; in data set [1] (setting [19]) it was 44000 ± 6100 ng/mL; in data set [1] (setting [18]), 46000 ± 8300 ng/mL; in data set [2] (setting [11]), 38600 ± 6000 ng/mL; in data set [2] (setting [12]) it was 38000 ± 5600 ng/mL. Besides, the Vd in data set [1] (setting [9]) turned out to be 10.4 ± 0.9 L; in data set [1] (setting [19]), 9.9 ± 1.2 L; in data set [1] (setting [18]) it was 9.6 ± 1.4 L. In addition, the CL in data set [1] (setting [9]) came out at 10.9 ± 1.6 L/h; in data set [1] (setting [19]), 10.8 ± 1.8 L/h. Besides, the t1/2 in data set [1] (setting [9]) and in data set [1] (setting [19]) was 1.2 ± 0.2 h each time. The Accum. index in data set [2] (setting [12]) was 1.1 ± 0.04. In data set [2] (day 11 vs day 1), the accumulation index result is listed as “approximately 1”. In addition, the AUC in data set [2] (setting [11]) stood at 45600 ± 7000 ng·h/mL; in data set [2] (setting [12]) it was 39400 ± 7200 ng·h/mL. In addition, the Tmax in data set [2] (setting [13]) and in data set [2] (setting [14]) was 0.5 h in each case. The CL renal in data set [3] (in vivo) was 133 mL/min; in data set [4] (in vivo, part C cohort 14, Day 8, placebo subjects (no DUR), n=2), 206 mL/min; in data set [4] (in vivo, part D cohort 15, Day 11, DUR + SUL + IMI-CIL q6h, mean) it was 183 mL/min. Besides, the Ae was 601.795 (46.820) mg in data set [4] (setting [15]), 3535.03 mg in data set [4] (setting [16]) and 424.168 mg in data set [4] (setting [17]). The Fe in data set [4] (setting [15]) is reported as 120.359 (9.364) %; in data set [4] (setting [16]) it was 88.376%; in data set [4] (setting [17]) it was 84.834%.

As a reminder, the half-life is how long it takes for the measured level to halve. Higher therefore signals slow decline. Usually AUC(0-t) stands for exposure summed from dosing to a finite time, without extrapolation to infinity. As a reminder, the clearance is a measure of how efficiently the substance is removed, as volume per time. The Cmax is the highest concentration seen after dosing. For orientation: Vd means the apparent volume that relates the amount in the body to the concentration in plasma or blood. The AUC is concentration integrated over time. What is called Tmax is the time from dosing to the highest level.
